Like-named read-outs stand apart in the source and are kept apart here.
Experiments:
Format in all cases: cell-based
[1] = tested on: gamma secretase-dependent cleavage of the Notch protein (NotchΔE) in HeLa cells; assay: Notch processing split-luciferase assay (Notch intracellular domain release); settings: average of at least >4 replicates, read-out: Notch IC50 AVG
Description: Notch Processing: (Assay Quantitates Notch Intracellular Domain Release in Cell Lines):
A “split-luciferase” assay is used to measure inhibition of gamma secretase-dependent cleavage of the Notch protein. In this assay, HeLa cells were made to express a Notch protein lacking its extracellular domain (NotchΔE) fused to an N-terminal fragment of luciferase. The same cells also expressed a C-terminal fragment of luciferase fused to the immunoglobulin J kappa recombination signal sequence binding protein (RBP). Upon NotchΔE cleavage by gamma secretase, a Notch intracellular domain (NICD)-N terminal luciferase protein is generated which translocates to the nucleus and binds the RBP-C terminal luciferase fusion, bringing two independently nonfunctional halves of luciferase together to form a functional luciferase enzyme. The activity of luciferase in these cells is directly proportional to the amount of gamma secretase-cleaved Notch. Luciferase activity is determined by the standard techniques of luciferin addition to lysed cells and measurement of total luminescence.

[2] = tested on: Aβ40 peptides generated from SH-SY5Y cells expressing amyloid β protein (SP4CT cells); assay: APP processing AlphaLisa assay, secreted Aβ40; settings: average of at least >4 replicates, read-out: AB40 IC50 AVG
Procedure: (§1) APP Processing (Assay Quantitates Secreted Aβ Analytes from Cell Lines):
(§2) The effect of compounds on the abundance of Aβ40 and Aβ42 peptides generated from SH-SY5Y cells expressing amyloid β protein (SP4CT cells) was determined by an AlphaLisa™ assay. Analogous to an ELISA assay, generation of signal in this AlphaLisa™ assay requires “donor” and “acceptor” beads to be brought in close proximity by specific antibody recognition of either Aβ40 or Aβ42 peptides. The assay was accomplished by removing media from compound-treated SP4CT cells to two different microplates, followed by the addition of donor beads conjugated with streptavidin binding a biotinylated anti-amyloid β monoclonal antibody (clone 4G8). Acceptor beads directly conjugated with anti-Aβ40 monoclonal antibody (G210) were added to one microplate and anti-Aβ42 monoclonal antibody (12F4) acceptor beads were added to the other. Abundance of Aβ40 and Aβ42 was directly proportional to the luminescent signal generated following excitation of donor beads by laser light.

[3] = biological target: T1, pregnane X receptor (PXR) (Homo sapiens, UniProt O75469); assay: PXR assay (CYP3A4-SEAP transactivation assay, PCSTA); settings: for EC50: HEP G2 cells
T1 construct: expressed in transfected cells; host or cells: HEP G2
T1 sequence (O75469 1-434): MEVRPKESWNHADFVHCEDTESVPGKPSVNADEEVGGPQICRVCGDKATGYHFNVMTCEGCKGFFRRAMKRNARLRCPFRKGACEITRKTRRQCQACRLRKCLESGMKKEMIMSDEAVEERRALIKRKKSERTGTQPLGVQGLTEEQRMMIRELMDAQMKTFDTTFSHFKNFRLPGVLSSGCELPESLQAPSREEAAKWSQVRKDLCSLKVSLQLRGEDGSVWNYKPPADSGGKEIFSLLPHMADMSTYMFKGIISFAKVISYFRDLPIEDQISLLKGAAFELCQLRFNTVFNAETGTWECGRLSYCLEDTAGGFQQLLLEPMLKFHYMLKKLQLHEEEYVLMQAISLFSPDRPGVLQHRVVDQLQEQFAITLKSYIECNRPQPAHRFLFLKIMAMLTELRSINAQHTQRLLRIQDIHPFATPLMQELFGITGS
T1 sequence (P19793 1-462 partner): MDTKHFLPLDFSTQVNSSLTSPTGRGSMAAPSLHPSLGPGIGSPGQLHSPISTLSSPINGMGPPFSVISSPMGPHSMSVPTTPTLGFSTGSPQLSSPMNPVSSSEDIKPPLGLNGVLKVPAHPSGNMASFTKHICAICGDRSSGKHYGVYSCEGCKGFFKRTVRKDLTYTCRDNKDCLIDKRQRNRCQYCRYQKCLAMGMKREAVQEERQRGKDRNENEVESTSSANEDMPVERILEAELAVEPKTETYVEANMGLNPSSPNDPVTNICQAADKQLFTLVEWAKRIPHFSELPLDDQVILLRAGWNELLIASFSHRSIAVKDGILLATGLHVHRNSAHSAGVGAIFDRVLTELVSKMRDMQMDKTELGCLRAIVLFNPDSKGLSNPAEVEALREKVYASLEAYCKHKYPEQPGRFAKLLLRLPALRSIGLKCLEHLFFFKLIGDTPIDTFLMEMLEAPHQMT
Description: The CYP3A4-SEAP transactivation assay (PCSTA) effectively and rapidly evaluates compounds for their potential to induce cytochrome P450 CYP3A (human CYP3A4 or rat CYP3A1). The reporter construct contains regulatory regions from the CYP3A4 gene positioned just upstream of a secreted alkaline phosphatase (SEAP) gene. The human PXR nuclear receptor has been modified at the 5′-end so that methionine is the initiating amino acid replacing leucine found in the wild-type sequence. HEP G2 cells are transfected with the PXR plasmid (human or rat) and the reporter plasmid. Read-out for the induction of CYP3A4 consists of a SEAP calorimetric assay with para-nitro-phenyl phosphate (pNPP) as the substrate. Five point dose-response curves in duplicate are then generated with each point corresponding to the rate of conversion of pNPP to pNP by SEAP. For the human PCSTA, rifampicin is used as the positive control and 100% induction is based upon the maximum induction produced by rifampicin at 10 μM.

[4] = tested on: Aβ42 peptides generated from SH-SY5Y cells expressing amyloid β protein (SP4CT cells); assay: APP processing AlphaLisa assay, secreted Aβ42; settings: average of at least >4 replicates, read-out: AB42 IC50 AVG
Procedure: as §1, §2

Structure (SMILES)	IC50 ([1]; Homo sapiens, HeLa)	IC50 ([2]; Homo sapiens, SH-SY5Y)	EC50 [3]	IC50 ([4]; Homo sapiens, SH-SY5Y)	PXR % Activation @ 10 uM [3]	IC50 [1]	IC50 [2]	IC50 [4]
O=S(=O)(N[C@H]1C[C@](c2cc(F)ccc2F)(S(=O)(=O)c2ccc(Cl)cc2)C1)C(F)(F)F [Example 1, N-[trans-3-[(4-chlorophenyl)sulfonyl]-3-(2,5-difluorophenyl)cyclobutyl]-1,1,1-trifluoromethanesulfonamide]	50 µM	0.151 µM	1.22 µM	0.117 µM	–	–	–	–
O=S(=O)(N[C@H]1C[C@@](c2cc(Cl)ccc2Cl)(S(=O)(=O)c2ccc(Cl)cc2)C1)C(F)(F)F [Example 4, N-[cis-3-[(4-chlorophenyl)sulfonyl]-3-(2,5-dichlorophenyl)cyclobutyl]-1,1,1-trifluoromethanesulfonamide]	1.94 µM	0.0708 µM	1.96 µM	0.0782 µM	70.7%	–	–	–
O=S(=O)(NC1CC(c2cc(F)ccc2F)(S(=O)(=O)c2ccc(C(F)(F)F)cc2)C1)C(F)(F)F (stereo not drawn) [Example 5, N-(cis-3-(2,5-difluorophenyl)-3-{[4-(trifluoromethyl)phenyl]sulfonyl}cyclobutyl)-1,1,1-trifluoromethanesulfonamide]	3.81 µM	0.1 µM	5.2 µM	0.0902 µM	64.4%	–	–	–
O=S(=O)(NC1CC(c2cc(Cl)ccc2F)(S(=O)(=O)c2ccc(Cl)cc2)C1)C(F)(F)F (stereo not drawn) [Example 6, N-{cis-3-(5-chloro-2-fluorophenyl)-3-[(4-chlorophenyl)sulfonyl]cyclobutyl}-1,1,1-trifluoromethanesulfonamide]	5.65 µM	0.13 µM	1.99 µM	0.106 µM	79.2%	–	–	–
O=S(=O)(NC1CC(c2cc(F)ccc2F)(S(=O)(=O)c2ccc(F)c(F)c2)C1)C(F)(F)F (stereo not drawn) [Example 8, N-{cis-3-(2,5-difluorophenyl)-3-[(3,4-difluorophenyl)sulfonyl]cyclobutyl}-1,1,1-trifluoromethanesulfonamide]	3.14 µM	0.0792 µM	1.26 µM	0.0628 µM	82.3%	–	–	–
N#Cc1ccc(S(=O)(=O)C2(c3cc(F)ccc3F)CC(NS(=O)(=O)C(F)(F)F)C2)cc1 (stereo not drawn) [Example 9, N-[cis-3-[(4-cyanophenyl)sulfonyl]-3-(2,5-difluorophenyl)cyclobutyl]-1,1,1-trifluoromethanesulfonamide]	8.9 µM	0.261 µM	8.36 µM	0.231 µM	54.9%	–	–	–
O=C(O)CCCN([C@H]1C[C@@](c2cc(F)ccc2F)(S(=O)(=O)c2ccc(Cl)cc2)C1)S(=O)(=O)C(F)(F)F [Example 10, 4-{[cis-3-[(4-chlorophenyl)sulfonyl]-3-(2,5-difluorophenyl)cyclobutyl][(trifluoromethyl)sulfonyl]amino}butanoic acid]	8.31 µM	0.0352 µM	1.24 µM	0.0307 µM	76.7%	–	–	–
COC(=O)CN([C@H]1C[C@@](c2cc(F)ccc2F)(S(=O)(=O)c2ccc(Cl)cc2)C1)S(=O)(=O)C(F)(F)F [Example 12, Methyl {[cis-3-[(4-chlorophenyl)sulfonyl]-3-(2,5-difluorophenyl)cyclobutyl][(trifluoromethyl)sulfonyl]amino}acetate]	13.2 µM	0.0977 µM	1.6 µM	0.117 µM	–	–	–	–
CN(C1CC(c2cc(F)ccc2F)(S(=O)(=O)c2ccc(Cl)cc2)C1)S(=O)(=O)C(F)(F)F (stereo not shown) [Example 13, N-[3-[(4-chlorophenyl)sulfonyl]-3-(2,5-difluorophenyl)cyclobutyl]-1,1,1-trifluoro-N-methylmethanesulfonamide]	–	–	1.26 µM	–	–	4.81 µM	0.0184 µM	0.0189 µM

Next, values leading:

IC50 ([1]; Homo sapiens, HeLa)	IC50 ([2]; Homo sapiens, SH-SY5Y)	EC50 [3]	IC50 ([4]; Homo sapiens, SH-SY5Y)	PXR % Activation @ 10 uM [3]	IC50 [1]	IC50 [2]	IC50 [4]	Structure (SMILES)
3.21 µM	0.0701 µM	0.714 µM	0.0661 µM	92.3%	–	–	–	N#Cc1ccc(F)cc1[C@]1(S(=O)(=O)c2ccc(Cl)cc2)C[C@@H](NS(=O)(=O)C(F)(F)F)C1 [Example 3, N-[cis-3-[(4-chlorophenyl)sulfonyl]-3-(2-cyano-5-fluorophenyl)cyclobutyl]-1,1,1-trifluoromethanesulfonamide]
3.08 µM	0.0684 µM	0.766 µM	0.0576 µM	113.2%	–	–	–	O=S(=O)(NC1CC(c2cc(F)ccc2F)(S(=O)(=O)c2ccc(F)cc2)C1)C(F)(F)F (stereo not drawn) [Example 7, N-{cis-3-(2,5-difluorophenyl)-3-[(4-fluorophenyl)sulfonyl]cyclobutyl}-1,1,1-trifluoromethanesulfonamide]
2.54 µM	0.0434 µM	0.826 µM	0.0369 µM	86.5%	–	–	–	O=S(=O)(N(CCOC1CCCCO1)[C@H]1C[C@@](c2cc(F)ccc2F)(S(=O)(=O)c2ccc(Cl)cc2)C1)C(F)(F)F (stereo partly drawn) [Example 11, N-[cis-3-[(4-chlorophenyl)sulfonyl]-3-(2,5-difluorophenyl)cyclobutyl]-1,1,1-trifluoro-N-[2-(tetrahydro-2-pyran-2-yloxy)ethyl]methanesulfonamide]
–	–	0.829 µM	–	–	9.87 µM	0.0899 µM	0.0971 µM	CN(C1CC(c2cc(F)ccc2F)(S(=O)(=O)c2ccc(Cl)cc2)C1)S(=O)(=O)C(F)(F)F (stereo not shown) [Example 14, N-[3-[(4-chlorophenyl)sulfonyl]-3-(2,5-difluorophenyl)cyclobutyl]-1,1,1-trifluoro-N-methylmethanesulfonamide]
2.83 µM	0.0518 µM	1.21 µM	0.0518 µM	–	–	–	–	COC(=O)CCCN([C@H]1C[C@@](c2cc(F)ccc2F)(S(=O)(=O)c2ccc(Cl)cc2)C1)S(=O)(=O)C(F)(F)F [Example 15, methyl 4-{[cis-3-[(4-chlorophcnyl)sulfonyl]-3-(2,5-difluorophenyl)cyclobutyl][(trifluoromethyl)sulfonyl]amino}butanoate]
32 µM	0.0967 µM	1.01 µM	0.0679 µM	100%	–	–	–	O=C(O)CN([C@H]1C[C@@](c2cc(F)ccc2F)(S(=O)(=O)c2ccc(Cl)cc2)C1)S(=O)(=O)C(F)(F)F [Example 16, N-[cis-3-[(4-chlorophenyl)sulfonyl]-3-(2,5-difluorophenyl)cyclobutyl]-N-[(trifluoromethyl)sulfonyl]glycine]

Reference: patent US8759579B2, “Cyclobutyl sulfones as notch sparing gamma secretase inhibitors” (Merck Sharp & Dohme Corp., priority 2008, dated 2014)
